# Assay results from ChEMBL document CHEMBL5465560, “Selectivity Literature for EUbOPEN Chemogenomic Library” (2024).
# What was measured:
# [1] = molecular target: T1, Dual specificity mitogen-activated protein kinase kinase 6 (Homo sapiens) (UniProt P52564); assay: Selectivity interaction (Kinase panel (DSF assay)) EUB0001558a MAP2K6
# T1 sequence (whole entry): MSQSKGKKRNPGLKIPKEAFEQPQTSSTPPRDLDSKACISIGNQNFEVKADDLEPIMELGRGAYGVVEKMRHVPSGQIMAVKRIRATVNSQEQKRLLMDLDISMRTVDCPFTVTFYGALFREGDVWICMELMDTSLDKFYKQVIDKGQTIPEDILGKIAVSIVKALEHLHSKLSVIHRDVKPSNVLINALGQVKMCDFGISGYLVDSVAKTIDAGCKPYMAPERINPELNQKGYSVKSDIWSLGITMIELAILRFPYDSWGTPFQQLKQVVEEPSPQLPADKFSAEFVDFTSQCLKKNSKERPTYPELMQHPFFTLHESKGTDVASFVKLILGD
# [2] = molecular target: Dual specificity tyrosine-phosphorylation-regulated kinase 1B (Homo sapiens, UniProt Q9Y463); conditions: at 10 µM
# Chain of Dual specificity tyrosine-phosphorylation-regulated kinase 1B (Q9Y463 whole entry, looked up): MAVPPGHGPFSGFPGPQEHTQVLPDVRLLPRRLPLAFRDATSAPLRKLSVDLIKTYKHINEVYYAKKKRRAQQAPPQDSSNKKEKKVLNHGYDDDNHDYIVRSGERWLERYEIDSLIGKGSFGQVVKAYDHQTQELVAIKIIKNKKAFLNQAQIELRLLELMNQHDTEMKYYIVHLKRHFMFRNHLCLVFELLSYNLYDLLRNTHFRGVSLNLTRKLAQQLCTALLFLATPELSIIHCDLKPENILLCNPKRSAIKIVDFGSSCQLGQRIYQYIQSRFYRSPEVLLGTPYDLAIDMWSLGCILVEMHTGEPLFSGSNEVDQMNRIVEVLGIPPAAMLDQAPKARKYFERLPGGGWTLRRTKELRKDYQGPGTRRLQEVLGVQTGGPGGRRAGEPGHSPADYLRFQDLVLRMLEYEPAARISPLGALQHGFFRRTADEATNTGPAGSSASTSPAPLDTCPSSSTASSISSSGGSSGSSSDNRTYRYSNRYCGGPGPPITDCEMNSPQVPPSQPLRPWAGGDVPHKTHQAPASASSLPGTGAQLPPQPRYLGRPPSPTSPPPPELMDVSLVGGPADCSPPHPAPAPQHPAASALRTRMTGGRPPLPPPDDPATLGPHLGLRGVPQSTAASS
# [3] = molecular target: T2, Testis-specific serine/threonine-protein kinase 1 (Homo sapiens) (UniProt Q9BXA7); assay: Selectivity interaction (KinomeScan (DiscoverX)) EUB0000092b TSSK1A; conditions: at 10 µM
# T2 sequence (whole entry): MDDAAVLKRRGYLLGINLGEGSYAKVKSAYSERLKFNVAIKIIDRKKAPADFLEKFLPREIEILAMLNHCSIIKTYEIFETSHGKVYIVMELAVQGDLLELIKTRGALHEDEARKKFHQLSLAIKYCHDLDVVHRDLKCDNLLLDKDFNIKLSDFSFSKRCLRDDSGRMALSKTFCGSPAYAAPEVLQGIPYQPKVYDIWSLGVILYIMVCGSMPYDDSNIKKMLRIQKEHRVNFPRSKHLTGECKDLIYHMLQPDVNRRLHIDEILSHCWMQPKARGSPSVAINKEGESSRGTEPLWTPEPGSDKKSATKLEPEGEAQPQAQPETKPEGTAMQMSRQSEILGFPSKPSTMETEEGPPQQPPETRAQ
# [4] = molecular target: T3, Bone morphogenetic protein receptor type-2 (Homo sapiens) (UniProt Q13873); assay: Selectivity interaction (KinomeScan (DiscoverX)) EUB0000045b BMPR2
# T3 sequence (whole entry): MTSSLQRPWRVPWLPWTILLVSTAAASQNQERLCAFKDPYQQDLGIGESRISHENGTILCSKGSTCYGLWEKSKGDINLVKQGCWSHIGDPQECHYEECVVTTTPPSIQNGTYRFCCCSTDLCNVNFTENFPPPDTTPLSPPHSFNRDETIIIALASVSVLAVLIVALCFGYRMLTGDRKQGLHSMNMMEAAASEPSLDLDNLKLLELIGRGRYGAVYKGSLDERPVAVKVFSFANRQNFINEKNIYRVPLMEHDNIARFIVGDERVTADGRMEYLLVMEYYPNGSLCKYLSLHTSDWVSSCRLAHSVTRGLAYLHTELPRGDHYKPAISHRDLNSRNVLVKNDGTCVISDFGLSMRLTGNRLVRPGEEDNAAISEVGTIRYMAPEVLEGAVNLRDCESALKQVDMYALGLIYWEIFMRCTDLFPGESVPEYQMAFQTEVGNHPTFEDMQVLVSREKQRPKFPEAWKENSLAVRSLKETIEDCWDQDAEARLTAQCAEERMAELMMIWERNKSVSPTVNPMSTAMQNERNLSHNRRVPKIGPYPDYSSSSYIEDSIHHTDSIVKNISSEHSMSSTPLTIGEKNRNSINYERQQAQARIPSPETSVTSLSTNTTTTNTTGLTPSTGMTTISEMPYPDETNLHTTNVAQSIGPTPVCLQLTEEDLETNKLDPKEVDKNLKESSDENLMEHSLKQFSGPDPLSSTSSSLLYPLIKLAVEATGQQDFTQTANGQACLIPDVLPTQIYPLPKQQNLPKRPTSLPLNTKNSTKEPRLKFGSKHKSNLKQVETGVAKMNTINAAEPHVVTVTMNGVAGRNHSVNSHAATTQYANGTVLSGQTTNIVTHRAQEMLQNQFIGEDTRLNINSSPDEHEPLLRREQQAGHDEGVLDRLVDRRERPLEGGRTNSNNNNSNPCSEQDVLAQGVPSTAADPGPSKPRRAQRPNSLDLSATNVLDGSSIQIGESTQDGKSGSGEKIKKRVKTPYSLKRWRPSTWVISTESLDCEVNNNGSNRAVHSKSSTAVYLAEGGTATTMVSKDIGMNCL
# [5] = molecular target: Activin receptor type-1-like (Homo sapiens) (UniProt P37023); assay: Selectivity interaction (KinomeScan (DiscoverX)) EUB0000618a ACVRL1; conditions: at 10 µM
# Chain of Activin receptor type-1-like (Homo sapiens) (P37023 whole entry): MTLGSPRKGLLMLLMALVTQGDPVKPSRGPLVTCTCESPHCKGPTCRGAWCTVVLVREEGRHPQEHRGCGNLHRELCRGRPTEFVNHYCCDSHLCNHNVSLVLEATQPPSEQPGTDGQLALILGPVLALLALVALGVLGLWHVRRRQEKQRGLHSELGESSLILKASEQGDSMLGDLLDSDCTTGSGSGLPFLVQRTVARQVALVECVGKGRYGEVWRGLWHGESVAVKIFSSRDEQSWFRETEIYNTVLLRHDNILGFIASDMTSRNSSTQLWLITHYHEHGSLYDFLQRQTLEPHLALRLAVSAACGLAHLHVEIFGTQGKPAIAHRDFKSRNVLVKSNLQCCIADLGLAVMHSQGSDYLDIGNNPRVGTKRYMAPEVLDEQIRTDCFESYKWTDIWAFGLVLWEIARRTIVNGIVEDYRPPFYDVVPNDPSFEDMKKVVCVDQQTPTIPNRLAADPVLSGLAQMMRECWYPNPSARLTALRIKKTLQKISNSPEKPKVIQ
# [6] = molecular target: Transient receptor potential cation channel subfamily M member 6 (Homo sapiens) (UniProt Q9BX84); assay: Selectivity interaction (KinomeScan (DiscoverX)) EUB0000695a TRPM6; conditions: at 100 nM
# Chain of Transient receptor potential cation channel subfamily M member 6 (Homo sapiens) (Q9BX84 whole entry): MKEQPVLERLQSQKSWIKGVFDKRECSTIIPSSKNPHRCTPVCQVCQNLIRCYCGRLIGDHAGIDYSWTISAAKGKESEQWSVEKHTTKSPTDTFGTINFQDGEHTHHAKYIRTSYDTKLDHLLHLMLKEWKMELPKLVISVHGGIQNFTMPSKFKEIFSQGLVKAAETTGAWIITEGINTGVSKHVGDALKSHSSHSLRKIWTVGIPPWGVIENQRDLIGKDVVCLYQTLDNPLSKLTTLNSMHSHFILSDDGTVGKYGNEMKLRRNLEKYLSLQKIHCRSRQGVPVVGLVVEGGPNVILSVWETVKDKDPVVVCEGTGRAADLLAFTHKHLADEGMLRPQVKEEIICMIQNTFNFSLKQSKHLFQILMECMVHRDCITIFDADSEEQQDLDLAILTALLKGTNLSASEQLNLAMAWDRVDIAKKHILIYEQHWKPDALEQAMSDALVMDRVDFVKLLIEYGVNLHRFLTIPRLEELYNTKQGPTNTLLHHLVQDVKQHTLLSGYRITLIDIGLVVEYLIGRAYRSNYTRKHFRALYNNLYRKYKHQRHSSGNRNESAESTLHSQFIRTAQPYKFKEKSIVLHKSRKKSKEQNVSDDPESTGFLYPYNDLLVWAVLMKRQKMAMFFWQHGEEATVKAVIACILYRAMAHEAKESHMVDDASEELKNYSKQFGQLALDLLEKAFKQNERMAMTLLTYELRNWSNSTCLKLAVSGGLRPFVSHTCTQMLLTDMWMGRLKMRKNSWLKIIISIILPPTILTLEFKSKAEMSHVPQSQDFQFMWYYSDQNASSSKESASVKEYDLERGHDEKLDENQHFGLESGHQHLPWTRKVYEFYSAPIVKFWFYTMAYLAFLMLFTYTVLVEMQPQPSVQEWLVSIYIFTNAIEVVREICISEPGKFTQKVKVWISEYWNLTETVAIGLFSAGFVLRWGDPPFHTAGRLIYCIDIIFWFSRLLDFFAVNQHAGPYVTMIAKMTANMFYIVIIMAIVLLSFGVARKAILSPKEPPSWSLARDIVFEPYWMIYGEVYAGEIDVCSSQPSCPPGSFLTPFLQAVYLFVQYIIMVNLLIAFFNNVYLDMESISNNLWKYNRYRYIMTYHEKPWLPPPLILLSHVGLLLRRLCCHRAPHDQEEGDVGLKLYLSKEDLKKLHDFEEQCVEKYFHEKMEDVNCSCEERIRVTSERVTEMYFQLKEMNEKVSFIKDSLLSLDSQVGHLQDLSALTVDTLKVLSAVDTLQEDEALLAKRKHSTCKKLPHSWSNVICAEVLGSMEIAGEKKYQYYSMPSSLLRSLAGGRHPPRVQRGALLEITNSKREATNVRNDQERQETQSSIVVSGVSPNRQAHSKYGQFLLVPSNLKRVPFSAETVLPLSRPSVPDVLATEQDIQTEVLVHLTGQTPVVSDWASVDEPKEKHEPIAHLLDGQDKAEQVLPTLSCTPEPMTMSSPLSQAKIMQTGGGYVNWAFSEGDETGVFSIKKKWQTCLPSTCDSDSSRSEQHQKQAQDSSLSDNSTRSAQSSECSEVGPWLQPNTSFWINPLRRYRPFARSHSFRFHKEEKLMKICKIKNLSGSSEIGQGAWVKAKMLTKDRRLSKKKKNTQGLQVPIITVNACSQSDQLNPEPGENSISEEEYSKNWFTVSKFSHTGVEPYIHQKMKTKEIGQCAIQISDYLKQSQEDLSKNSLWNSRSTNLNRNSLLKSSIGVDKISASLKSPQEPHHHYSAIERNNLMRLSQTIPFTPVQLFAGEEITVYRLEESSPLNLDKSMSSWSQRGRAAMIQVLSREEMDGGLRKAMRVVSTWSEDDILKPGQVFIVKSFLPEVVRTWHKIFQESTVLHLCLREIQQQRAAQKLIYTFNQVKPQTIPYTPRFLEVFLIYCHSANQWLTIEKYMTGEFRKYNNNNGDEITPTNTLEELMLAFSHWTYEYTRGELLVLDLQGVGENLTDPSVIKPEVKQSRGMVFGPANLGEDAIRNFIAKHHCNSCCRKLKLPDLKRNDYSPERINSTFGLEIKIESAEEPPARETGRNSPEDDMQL
# [7] = molecular target: T4, Protein kinase C zeta type (Homo sapiens) (UniProt Q05513); assay: Selectivity interaction (Kinase panel (Z-LYTE Assay)) EUB0001632a PRKCZ; conditions: at 10 µM
# T4 sequence (whole entry): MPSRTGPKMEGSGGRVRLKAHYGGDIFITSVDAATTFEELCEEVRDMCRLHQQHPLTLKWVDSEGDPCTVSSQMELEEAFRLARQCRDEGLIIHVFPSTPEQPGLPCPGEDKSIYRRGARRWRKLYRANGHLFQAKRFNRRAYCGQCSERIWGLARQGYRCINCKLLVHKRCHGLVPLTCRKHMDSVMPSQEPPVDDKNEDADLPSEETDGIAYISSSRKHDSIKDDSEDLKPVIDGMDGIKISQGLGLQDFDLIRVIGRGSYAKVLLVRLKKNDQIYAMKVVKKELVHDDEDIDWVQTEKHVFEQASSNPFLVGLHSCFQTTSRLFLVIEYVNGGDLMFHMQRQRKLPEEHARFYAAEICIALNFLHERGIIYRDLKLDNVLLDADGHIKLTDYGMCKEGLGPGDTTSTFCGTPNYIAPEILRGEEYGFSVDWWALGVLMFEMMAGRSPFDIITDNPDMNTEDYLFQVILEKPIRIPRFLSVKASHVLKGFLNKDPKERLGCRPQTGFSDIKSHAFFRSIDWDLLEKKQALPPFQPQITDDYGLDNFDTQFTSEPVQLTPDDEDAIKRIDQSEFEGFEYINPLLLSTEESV
smiles,measurement,setting,value
CC(C)(O)[C@H](F)CN1Cc2cc(NC(=O)c3cnn4cccnc34)c(N3CCOCC3)cc2C1=O,dTM,[1],0.3 K
CCN(CC)CCCCNc1ncc2cc(-c3cc(OC)cc(OC)c3)c(NC(=O)NC(C)(C)C)nc2n1,% of control,[2],100%
CCC(=O)N1CCN(c2ccc(-n3c(=O)ccc4cnc5ccc(-c6cnc7ccccc7c6)cc5c43)cc2C(F)(F)F)CC1,% of control,[3],100%
C=CC(=O)Nc1cc(-n2c(=O)ccc3cnc4ccc(-c5ccc(NS(C)(=O)=O)cc5)cc4c32)ccc1C,% of control,[4]; at 1 µM,69%
same,% of control,[4]; at 10 µM,50%
O[C@H]1CC[C@H](Nc2ncc3nc(Nc4c(F)cc(F)cc4F)n([C@H]4CCOC4)c3n2)CC1,% of control,[5],72%
Cc1cc(F)c(C(=O)Nc2cccc(-c3nncn3C(C)C)n2)cc1-n1cnc(C2CC2)c1,% of control,[6],100%
Cn1cc(-n2cnc3c(NCc4nc5cc(Cl)c(Cl)cc5[nH]4)nc(N4CCOCC4)nc32)cn1,% of control,[7],6.71%
